Results as given in patent US8399465B2, “Compounds with two fused bicyclic heteroaryl moieties as modulators of leukotriene A4 hydrolase” (Janssen Pharmaceutica NV, priority 2009, dated 2013).
Counter-ions that a name gives are not always drawn.

The compounds below were run against T1, recombinant human LTA4 hydrolase (rhLTA4H) (Homo sapiens, UniProt P09960) (assay: Recombinant human LTA4 hydrolase assay for LTA4 hydrolase inhibitor activity). Conditions: rhLTA4H, LTB4 by immunoassay; single determination or average of two or more; mark after value = form tested: ′ free base, ″ hydrochloride, ^ formate; read-out: IC50.
T1 construct: made in house; host or cells: Spodoptera frugiperda (Sf-9) cells, baculovirus (pFastBac1)
T1 sequence (P09960 1-611): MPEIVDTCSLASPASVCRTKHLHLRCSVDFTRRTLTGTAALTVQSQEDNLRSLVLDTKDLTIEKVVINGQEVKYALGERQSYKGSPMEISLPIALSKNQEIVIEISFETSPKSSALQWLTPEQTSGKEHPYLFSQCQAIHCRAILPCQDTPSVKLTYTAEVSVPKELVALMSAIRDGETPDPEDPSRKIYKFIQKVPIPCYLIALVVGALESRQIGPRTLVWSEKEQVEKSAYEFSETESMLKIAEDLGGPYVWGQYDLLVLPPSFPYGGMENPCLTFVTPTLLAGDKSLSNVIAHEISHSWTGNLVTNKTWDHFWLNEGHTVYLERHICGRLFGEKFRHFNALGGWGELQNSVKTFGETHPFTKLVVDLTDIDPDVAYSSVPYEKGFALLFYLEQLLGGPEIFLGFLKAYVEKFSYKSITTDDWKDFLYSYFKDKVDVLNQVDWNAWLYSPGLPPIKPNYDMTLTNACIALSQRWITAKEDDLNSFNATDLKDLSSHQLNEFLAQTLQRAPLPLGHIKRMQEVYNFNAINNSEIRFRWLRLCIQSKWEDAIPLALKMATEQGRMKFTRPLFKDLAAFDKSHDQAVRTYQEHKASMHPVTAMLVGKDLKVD
Format: biochemical
Description: Assay 1: Recombinant Human LTA4 Hydrolase Assay for LTA4 Hydrolase Inhibitor Activity
Compounds of the present invention were tested for LTA4 hydrolase inhibitor activity against recombinant human LTA4 hydrolase (rhLTA4H). Vectors were prepared and used to express rhLTA4H essentially as follows: LTA4 hydrolase encoding DNA was amplified by polymerase chain reaction (PCR) using a human placental cDNA library as a template. […] The amplified 1.9 kb DNA fragment encoding LTA4 hydrolase was isolated and cloned into the pFastBac1 vector (Invitrogen). Recombinant baculovirus was generated as described by the manufacturer, and used to infect Spodoptera frugiperda (Sf-9) cells. […] The purified enzyme solution was adjusted to contain 0.29 mg/mL LTA4 hydrolase, 50 mM Tris (pH 8.0), 150 mM NaCl, 5 mM dithiothreitol, 50% glycerol, and EDTA-free Complete protease inhibitor cocktail (Roche).
LTA4 substrate was prepared from the methyl ester of LTA4 (Cayman Chemical) by treatment with 67 equiv of NaOH under nitrogen at rt for 40 min. The LTA4 substrate in its free acid form was kept frozen at −80° C. until needed. Each compound was diluted to different concentrations in assay buffer (from Assay Designs) containing 10% DMSO. A 25-μL aliquot of each compound dilution was incubated for 10 min at rt with an equal volume of assay buffer containing 10 ng of recombinant human LTA4H. The solution was then adjusted to 200 μL with assay buffer. […] Each reaction was carried out at rt for 30 min. The reaction was stopped by diluting 10 μL of the reaction mixture with 200 μL of assay buffer. LTB4 was quantified in the diluted sample by a commercially available enzyme-linked immunoassay (Cayman Chemical Co.), as recommended by the manufacturer. Positive controls, under essentially identical conditions but without addition of an inhibitor compound, and negative controls, containing all assay components except enzyme, were routinely run in each experiment. IC50 values were determined by nonlinear regression of the activity data at different compound concentrations using Graphpad Prism 4.0, one site binding competition.
The values presented here are the result of a single determination or an average of two or more determinations. Compounds that were not tested are indicated as such by a “NT” designation.

Q: How did the IC50 turn out when `CC(C)(C)OC(=O)C1CCN(Cc2cc3ccc(Oc4nc5ncccc5s4)cc3o2)CC1` [Example 225, 1-[6-(Thiazolo[4,5-b]pyridin-2-yloxy)-benzofuran-2-ylmethyl]-piperidine-4-carboxylic acid tert-butyl ester] was run?
A: Its IC50 is 765 nM.

Q: How did the IC50 turn out when `CC(=O)NC1CCN(Cc2coc3cc(Oc4nc5nc(C)ccc5s4)ccc23)CC1` [Example 250, N-{1-[6-(5-Methyl-thiazolo[4,5-b]pyridin-2-yloxy)-benzofuran-3-ylmethyl]-piperidin-4-yl}-acetamide formate] was run?
A: Its IC50 is 467 nM.

Q: How did the IC50 turn out when `CC(=O)NC1CCN(Cc2coc3cc(Oc4nc5ncc(Cl)cc5s4)ccc23)CC1` [Example 254, N-{1-[6-(6-Chloro-thiazolo[4,5-b]pyridin-2-yloxy)-benzofuran-3-ylmethyl]-piperidin-4-yl}-acetamide formate] was run?
A: Its IC50 is 108 nM.

Q: `CC(=O)N1CCC2(CCN(Cc3coc4cc(Oc5nc6ncccc6s5)ccc34)CC2)C1` [Example 265, 1-{8-[6-(Thiazolo[4,5-b]pyridin-2-yloxy)-benzofuran-3-ylmethyl]-2,8-diaza-spiro[4.5]dec-2-yl}-ethanone] was tested. Which IC50 did it give?
A: The IC50 was under 1 nM.

Q: Which IC50 does the source give for `CC(=O)NC1CCN(Cc2cc3ncc(Oc4nc5ncccc5s4)cc3o2)CC1` [Example 273, N-{1-[6-(Thiazolo[4,5-b]pyridin-2-yloxy)-furo[3,2-b]pyridin-2-ylmethyl]-piperidin-4-yl}-acetamide formate] here?
A: Its IC50 is 160 nM.

Q: How did the IC50 turn out when `CC(=O)N1C[C@@H]2C[C@H]1CN2Cc1cc2ncc(Oc3nc4ncccc4s3)cc2o1` [Example 274, (1S,4S)-1-{5-[6-(Thiazolo[4,5-b]pyridin-2-yloxy)-furo[3,2-b]pyridin-2-ylmethyl]-2,5-diaza-bicyclo[2.2.1]hept-2-yl}-ethanone formate] was run?
A: Its IC50 is 250 nM.

Q: With `c1cnc(N2CCN(Cc3coc4cc(Oc5nc6ncccc6s5)ccc34)CC2)nc1` [Example 292, 2-[3-(4-Pyrimidin-2-yl-piperazin-1-ylmethyl)-benzofuran-6-yloxy]-thiazolo[4,5-b]pyridine formate] as the compound, how does the IC50 read?
A: Its IC50 is 40 nM.

Q: `c1ccc2c(c1)CCN(Cc1coc3cc(Oc4nc5ncccc5s4)ccc13)C2` [Example 293, 2-[6-(Thiazolo[4,5-b]pyridin-2-yloxy)-benzofuran-3-ylmethyl]-1,2,3,4-tetrahydro-isoquinoline formate] was tested. Which IC50 did it give?
A: The IC50 was 19 nM.

Q: How did the IC50 turn out when `CN1CCC(N(C)Cc2coc3cc(Oc4nc5ncccc5s4)ccc23)CC1` [Example 294, Methyl-(1-methyl-piperidin-4-yl)-[6-(thiazolo[4,5-b]pyridin-2-yloxy)-benzofuran-3-ylmethyl]-amine] was run?
A: The IC50 was 24 nM.

Q: Which IC50 does the source give for `CC(=O)N[C@H]1C[C@H]2CC[C@@H](C1)N2Cc1cc2ncc(Oc3nc4ncccc4s3)cc2o1` [Example 296, meso-endo-N-{8-[6-(Thiazolo[4,5-b]pyridin-2-yloxy)-furo[3,2-b]pyridin-2-ylmethyl]-8-aza-bicyclo[3.2.1]oct-3-yl}-acetamide formate] here?
A: The IC50 was 850 nM.

Q: `c1cnc2nc(Oc3ccc4c(CNCCN5CCCCC5)coc4c3)sc2c1` [Example 305, (2-Piperidin-1-yl-ethyl)-[6-(thiazolo[4,5-b]pyridin-2-yloxy)-benzofuran-3-ylmethyl]-amine] was tested. Which IC50 did it give?
A: The IC50 was 31 nM.

Q: With `NS(=O)(=O)c1ccc(CCNCc2coc3cc(Oc4nc5ccccc5s4)ccc23)cc1` [Example 311, 4-(2-{[6-(Benzothiazol-2-yloxy)-benzofuran-3-ylmethyl]-amino}-ethyl)-benzenesulfonamide] as the compound, how does the IC50 read?
A: Its IC50 is 230 nM.

Q: With `CCN(CC)CCNCc1coc2cc(Oc3nc4ncccc4s3)ccc12` [Example 317, N,N-Diethyl-N′-[6-(thiazolo[4,5-b]pyridin-2-yloxy)-benzofuran-3-ylmethyl]-ethane-1,2-diamine] as the compound, how does the IC50 read?
A: Its IC50 is 35 nM.

Q: For `CCN(Cc1coc2cc(Oc3nc4ncccc4s3)ccc12)C1CCCCC1` [Example 318, Cyclohexyl-ethyl-[6-(thiazolo[4,5-b]pyridin-2-yloxy)-benzofuran-3-ylmethyl]-amine formate], which IC50 is on record?
A: The IC50 was under 1 nM.

Q: How did the IC50 turn out when `c1ccc(OCCNCc2coc3cc(Oc4nc5ncccc5s4)ccc23)cc1` [Example 319, (2-Phenoxy-ethyl)-[6-(thiazolo[4,5-b]pyridin-2-yloxy)-benzofuran-3-ylmethyl]-amine formate] was run?
A: Its IC50 is 52 nM.

Q: How did the IC50 turn out when `c1ccc2c(c1)CC(NCc1coc3cc(Oc4nc5ncccc5s4)ccc13)C2` [Example 320, Indan-2-yl-[6-(thiazolo[4,5-b]pyridin-2-yloxy)-benzofuran-3-ylmethyl]-amine formate] was run?
A: Its IC50 is 15 nM.

Q: With `CCN(CC)Cc1cc2cc(Oc3nc4ncccc4s3)ccc2o1` [Example 329, Diethyl-[5-(thiazolo[4,5-b]pyridin-2-yloxy)-benzofuran-2-ylmethyl]-amine formate] as the compound, how does the IC50 read?
A: Its IC50 is 54 nM.

Q: With `CCOC(=O)CCN(C)Cc1coc2cc(Oc3nc4ncccc4s3)ccc12` [Example 334, 3-{Methyl-[6-(thiazolo[4,5-b]pyridin-2-yloxy)-benzofuran-3-ylmethyl]-amino}-propionic acid ethyl ester] as the compound, how does the IC50 read?
A: The IC50 was 20 nM.

Q: With `CC(=O)N[C@@H]1C[C@H]2CC[C@@H](C1)N2Cc1cc2ncc(Oc3nc4ncccc4s3)cc2o1` [Example 336, meso-exo-N-{8-[6-(Thiazolo[4,5-b]pyridin-2-yloxy)-furo[3,2-b]pyridin-2-ylmethyl]-8-aza-bicyclo[3.2.1]oct-3-yl}-acetamide] as the compound, how does the IC50 read?
A: Its IC50 is 110 nM.

Q: With `NC(=O)N1C[C@@H]2C[C@H]1CN2Cc1cc2ncc(Oc3nc4ncccc4s3)cc2o1` [Example 337, (1S,4S)-5-[6-(Thiazolo[4,5-b]pyridin-2-yloxy)-furo[3,2-b]pyridin-2-ylmethyl]-2,5-diaza-bicyclo[2.2.1]heptane-2-carboxylic acid amide formate] as the compound, how does the IC50 read?
A: Its IC50 is 270 nM.

Q: For `CC(=O)N1C[C@H]2CC[C@@H](C1)N2Cc1cc2ncc(Oc3nc4ncccc4s3)cc2o1` [Example 338, meso-1-{8-[6-(Thiazolo[4,5-b]pyridin-2-yloxy)-furo[3,2-b]pyridin-2-ylmethyl]-3,8-diaza-bicyclo[3.2.1]oct-3-yl}-ethanone formate], which IC50 is on record?
A: Its IC50 is 450 nM.

Q: For `O=C1CCCN1C1CCN(Cc2cc3ncc(Oc4nc5ncccc5s4)cc3o2)CC1` [Example 341, 1-{1-[6-(Thiazolo[4,5-b]pyridin-2-yloxy)-furo[3,2-b]pyridin-2-ylmethyl]-piperidin-4-yl}-pyrrolidin-2-one], which IC50 is on record?
A: Its IC50 is 470 nM.

Q: For `CC(=O)N1CCN(Cc2cc3ncc(Oc4nc5ncccc5s4)cc3o2)CC1` [Example 343, 1-{4-[6-(Thiazolo[4,5-b]pyridin-2-yloxy)-furo[3,2-b]pyridin-2-ylmethyl]-piperazin-1-yl}-ethanone formate], which IC50 is on record?
A: The IC50 was 250 nM.

Q: Which IC50 does the source give for `COc1ccc(CNCc2coc3cc(Oc4nc5ncccc5s4)ccc23)cc1` [Example 346, (4-Methoxy-benzyl)-[6-(thiazolo[4,5-b]pyridin-2-yloxy)-benzofuran-3-ylmethyl]-amine] here?
A: Its IC50 is 13 nM.

Q: How did the IC50 turn out when `CN(Cc1ccccc1)C(=O)c1cc2cc(Oc3nc4ncccc4s3)ccc2o1` [Example 365, 5-(Thiazolo[4,5-b]pyridin-2-yloxy)-benzofuran-2-carboxylic acid benzyl-methyl-amide] was run?
A: The IC50 was 110 nM.

Q: With `CNC(=O)c1coc2cc(Oc3nc4ncccc4s3)ccc12` [Example 367, 6-(Thiazolo[4,5-b]pyridin-2-yloxy)-benzofuran-3-carboxylic acid methylamide] as the compound, how does the IC50 read?
A: Its IC50 is 160 nM.

Q: With `CCN(C(=O)c1coc2cc(Oc3nc4ncccc4s3)ccc12)C1CCCCC1` [Example 381, 6-(Thiazolo[4,5-b]pyridin-2-yloxy)-benzofuran-3-carboxylic acid cyclohexyl-ethyl-amide] as the compound, how does the IC50 read?
A: Its IC50 is 110 nM.
